Measured values as given in patent US12252524B2, “GIP/GLP1 co-agonist compounds” (Eli Lilly and Company, priority 2018, dated 2025).
Like-named read-outs stand apart in the source and are kept apart here. Numbered stars: 1 amine (or outer) side, 2 acyl side, 3 side chain; on linkers, the order of the positions; unused ones are H or OH. Square brackets hold non-standard residues; d marks the D form. Side chains are listed from the residue outwards. Peptide text beside a SMILES is read from it. * marks the point of attachment. C20 diacid = O=C(O)CCCCCCCCCCCCCCCCCCC(=O)*; C18 diacid = O=C(O)CCCCCCCCCCCCCCCCC(=O)*; γGlu = O=C(O)[C@H](CCC(=O)[*:2])N[*:1]; αMeL = CC(C)C[C@](C)(N)C(=O)O; Orn = NCCC[C@H](N)C(=O)O; AEEA = NCCOCCOCC(=O)O; Aib = CC(C)(N)C(=O)O

What was measured:
[1] = molecular target: human GLP-1 receptor (GLP-1R) (Homo sapiens, UniProt P43220); assay: cAMP pharmacological functional assay in presence of casein, hGLP-1R; assay type: cell-based; conditions: HEK293 cells expressing hGLP-1R, 0.1% Casein, geometric mean; read-out: hGLP1R cAMP Rel EC50 nM (SEM, n)
human Gcg receptor = molecular target: T1, human Gcg receptor (Homo sapiens, UniProt P47871); assay: [125I]-Glucagon binding (SPA), human Gcg receptor; conditions: read-out: hGLcgR Ki, nM (SEM, n)
T1 construct: expressed in transfected cells; crude membranes
In short: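 Crude membranes from cells expressing the receptor, prepared by hypotonic lysis in 50 mM Tris HCl pH 7.5 with protease inhibitors, homogenization and differential centrifugation, were used in a WGA-bead SPA. Binding buffer: 25 mM HEPES pH 7.4, 2.5 mM CaCl2, 1 mM MgCl2, bacitracin, Tween-20.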

human GLP-1R [2] = molecular target: T2, human GLP-1R (Homo sapiens, UniProt P43220); assay: [125I]-GLP-1 binding (SPA), human GLP-1 receptor; set-up: expressed in transfected cells; crude membranes; conditions: read-out: hGLP1R Ki, (nM) (SEM, n)
In short: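 Ki values are geometric means with SEM over independent replicates on different days, derived from IC50s fitted by four-parameter nonlinear regression. The assay used crude cell membranes in HEPES buffer, pH 7.4, containing CaCl2, MgCl2, bacitracin and TWEEN-20.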

[3] = molecular target: T3, gastric inhibitory peptide receptor (GIPR) (Homo sapiens, UniProt P48546); assay: cAMP pharmacological functional assay in presence of casein, hGIPR; assay type: cell-based; conditions: HEK293 cells expressing hGIPR, 0.1% Casein, geometric mean; read-out: hGIPR cAMP Rel EC50 nM (SEM, n)
T3 sequence (P48546 22-466): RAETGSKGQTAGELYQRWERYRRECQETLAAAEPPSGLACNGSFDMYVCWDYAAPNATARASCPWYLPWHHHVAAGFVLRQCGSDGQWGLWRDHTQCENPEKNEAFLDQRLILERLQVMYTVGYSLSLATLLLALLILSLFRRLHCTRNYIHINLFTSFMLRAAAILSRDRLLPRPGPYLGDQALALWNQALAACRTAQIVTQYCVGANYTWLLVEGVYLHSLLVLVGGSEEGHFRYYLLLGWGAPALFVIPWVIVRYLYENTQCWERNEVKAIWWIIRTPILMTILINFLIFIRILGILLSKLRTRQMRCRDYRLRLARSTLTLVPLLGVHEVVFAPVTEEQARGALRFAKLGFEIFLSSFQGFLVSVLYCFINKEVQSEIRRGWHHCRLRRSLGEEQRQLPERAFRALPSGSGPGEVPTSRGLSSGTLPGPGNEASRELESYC

human GLP-1R [4] = molecular target: T2, human GLP-1R; assay: GLP-1R CHO cell β-arrestin recruitment assay; assay type: cell-based; set-up: host or cells: CHO-K1 PathHunter cells, assay-ready frozen; conditions: for EC50: CHO-K1 cells; for hGLP1R B-Arrestin2 % Top: normalized to GLP-1 maximum control
Text: Activated G-protein coupled receptors can interact with the β-arrestin family of signalling proteins. […] CHO-K1 cells expressing Pro-Link-tagged Human GLP-1R and enzyme-acceptor-tagged β-arrestin-2 may be obtained from DiscoveRx and prepared as assay-ready frozen cells. Test peptides are solubilized in DMSO and serial dilutions are perfomed using the Echo acoustic dispenser (LabCyte). Assay media is the PathHunter Cell Assay Buffer (DiscoveRx) containing 0.1% w/v hydrolyzed Casein (Sigma). […] Plates are incubated for 90 minutes in a 37′C/5% C02 incubator and 10 ul of PathHunter detection reagent is added (DiscoveRx) and plates are incubated at room temperature for 60 minutes. Luminescence signal is measured. Peptide concentration-response curves fit to a four-parameter logistic model to calculate potency as an EC50.

human GIP receptor = molecular target: T4, human GIP receptor (Homo sapiens, UniProt P48546); assay: [125I]-GIP binding (SPA), human GIP receptor; conditions: read-out: hGIPR Ki, nM (SEM, n)
T4 construct: expressed in transfected cells; crude membranes
T4 sequence (P48546 22-466): T3 sequence (P48546 22-466)

[5] = 0.1% w/v hydrolyzed Casein, read-out: hGLP1R B-Arrestin2 Rel EC50
[6] = PathHunter β-arrestin-2 recruitment, 0.1% casein, read-out: hGLP1R B-Arrestin2 Rel EC50 uM (SEM, n)

Sequence of human GLP-1 receptor (GLP-1R) (P43220 24-463): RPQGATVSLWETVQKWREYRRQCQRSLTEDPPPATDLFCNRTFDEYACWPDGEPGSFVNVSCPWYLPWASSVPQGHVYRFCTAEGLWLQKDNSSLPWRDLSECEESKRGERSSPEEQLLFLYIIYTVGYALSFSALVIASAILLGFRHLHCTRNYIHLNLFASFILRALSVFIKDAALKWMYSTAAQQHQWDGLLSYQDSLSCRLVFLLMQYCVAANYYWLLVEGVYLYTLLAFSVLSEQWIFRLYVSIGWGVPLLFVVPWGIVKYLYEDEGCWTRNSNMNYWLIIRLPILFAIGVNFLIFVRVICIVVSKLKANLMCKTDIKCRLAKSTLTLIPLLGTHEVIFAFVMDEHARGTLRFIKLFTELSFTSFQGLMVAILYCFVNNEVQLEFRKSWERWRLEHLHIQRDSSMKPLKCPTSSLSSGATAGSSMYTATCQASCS
T2 sequence (P43220 24-463): as above
T1 sequence (P47871 26-477): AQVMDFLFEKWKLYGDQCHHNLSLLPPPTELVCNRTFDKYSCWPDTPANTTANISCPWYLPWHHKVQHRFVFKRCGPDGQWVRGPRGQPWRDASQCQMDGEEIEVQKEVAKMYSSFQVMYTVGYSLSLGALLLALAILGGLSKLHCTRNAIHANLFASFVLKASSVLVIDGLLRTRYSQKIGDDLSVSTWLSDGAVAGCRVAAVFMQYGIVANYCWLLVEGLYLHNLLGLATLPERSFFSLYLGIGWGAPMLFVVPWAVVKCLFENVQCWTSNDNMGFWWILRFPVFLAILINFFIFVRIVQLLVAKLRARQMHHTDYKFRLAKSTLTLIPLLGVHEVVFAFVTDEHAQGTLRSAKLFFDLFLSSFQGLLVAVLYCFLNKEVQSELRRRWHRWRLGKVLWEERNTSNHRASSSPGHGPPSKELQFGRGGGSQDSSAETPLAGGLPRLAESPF

Structure (SMILES) | EC50 [1] [nM] | Ki (human Gcg receptor) [nM] | Ki (human GLP-1R [2]) [nM] | EC50 [3] [nM] | EC50 (human GLP-1R [4]; [5]) [µM] | EC50 (human GLP-1R [4]; [6]) [µM] | Ki (human GIP receptor) [nM] | hGLP1R B-Arrestin2 % Top (human GLP-1R [4]) [%]
CC[C@H](C)[C@H](NC(=O)[C@H](CC(C)C)NC(=O)[C@H](Cc1ccc(O)cc1)NC(=O)[C@@H](CCC(=O)O)NC(=O)[C@@H](NC(=O)[C@H](Cc1ccccc1)NC(=O)[C@H](C)NC(=O)C(C)(C)NC(=O)[C@H](CCC(N)=O)NC(=O)[C@H](C)NC(=O)[C@H](CCCCNC(=O)COCCOCCNC(=O)COCCOCCNC(=O)CC[C@H](NC(=O)CCCCCCCCCCCCCCCCCCC(=O)O)C(=O)O)NC(=O)[C@H](CCCN)NC(=O)[C@H](CC(=O)O)NC(=O)[C@H](CC(C)C)NC(=O)[C@](C)(CC(C)C)NC(=O)[C@@H](NC(=O)[C@H](CO)NC(=O)[C@H](Cc1ccc(O)cc1)NC(=O)[C@H](CC(=O)O)NC(=O)[C@H](CO)NC(=O)[C@@H](NC(=O)[C@H](Cc1ccccc1)NC(=O)[C@@H](NC(=O)CNC(=O)[C@H](CCC(=O)O)NC(=O)C(C)(C)NC(=O)[C@H](N)Cc1ccc(O)cc1)[C@@H](C)O)[C@@H](C)O)[C@@H](C)CC)C(C)C)C(=O)N[C@@H](C)C(=O)NCC(=O)NCC(=O)N1CCC[C@H]1C(=O)N[C@@H](CO)C(=O)N[C@@H](CO)C(=O)NCC(=O)N[C@@H](C)C(=O)N1CCC[C@H]1C(=O)N1CCC[C@H]1C(=O)N1CCC[C@H]1C(=O)N[C@@H](CO)C(N)=O [Example 362] (H-[dY][Aib]EGTFTSDYSI[αMeL]LD[Orn]K([AEEA-AEEA-γGlu-C20 diacid])AQ[Aib]AFV[dE]YLIAGGPSSGAPPPS-NH2) | 0.365 | > 1050 | 6.95 | 0.302 | > 11 | > 11 | 0.337 | –
CC[C@H](C)[C@H](NC(=O)[C@H](CC(C)C)NC(=O)[C@H](Cc1ccc(O)cc1)NC(=O)[C@H](CCC(=O)O)NC(=O)[C@@H](NC(=O)[C@H](Cc1ccccc1)NC(=O)[C@H](CCC(=O)O)NC(=O)C(C)(C)NC(=O)[C@H](CCC(N)=O)NC(=O)[C@H](C)NC(=O)[C@H](CCCCNC(=O)COCCOCCNC(=O)COCCOCCNC(=O)CC[C@H](NC(=O)CCCCCCCCCCCCCCCCCCC(=O)O)C(=O)O)NC(=O)[C@H](CCCCN)NC(=O)[C@H](CC(=O)O)NC(=O)[C@H](CC(C)C)NC(=O)[C@](C)(CC(C)C)NC(=O)[C@@H](NC(=O)[C@H](CO)NC(=O)[C@H](Cc1ccc(O)cc1)NC(=O)[C@H](CC(=O)O)NC(=O)[C@H](CO)NC(=O)[C@@H](NC(=O)[C@H](Cc1ccccc1)NC(=O)[C@@H](NC(=O)CNC(=O)[C@H](CCC(=O)O)NC(=O)C(C)(C)NC(=O)[C@@H](N)Cc1ccccc1)[C@@H](C)O)[C@@H](C)O)[C@@H](C)CC)[C@@H](C)CC)C(=O)N[C@@H](C)C(=O)NCC(=O)NCC(=O)N1CCC[C@H]1C(=O)N[C@@H](CO)C(=O)N[C@@H](CO)C(=O)NCC(=O)N[C@@H](C)C(=O)N1CCC[C@H]1C(=O)N1CCC[C@H]1C(=O)N1CCC[C@H]1C(=O)N[C@@H](CO)C(N)=O [Example 338] (H-F[Aib]EGTFTSDYSI[αMeL]LDKK([AEEA-AEEA-γGlu-C20 diacid])AQ[Aib]EFIEYLIAGGPSSGAPPPS-NH2) | 0.174 | > 1060 | 3.23 | 0.0472 | – | 0.0189 | 0.0831 | 47
CC[C@H](C)[C@H](NC(=O)[C@H](CC(C)C)NC(=O)[C@H](Cc1ccc(O)cc1)NC(=O)[C@@H](CCC(=O)O)NC(=O)[C@@H](NC(=O)[C@H](Cc1ccccc1)NC(=O)[C@H](C)NC(=O)C(C)(C)NC(=O)[C@H](CCC(N)=O)NC(=O)[C@H](C)NC(=O)[C@H](CCCCNC(=O)COCCOCCNC(=O)COCCOCCNC(=O)CC[C@H](NC(=O)CCCCCCCCCCCCCCCCCCC(=O)O)C(=O)O)NC(=O)[C@H](CCCCN)NC(=O)[C@H](CC(=O)O)NC(=O)[C@H](CC(C)C)NC(=O)[C@](C)(CC(C)C)NC(=O)[C@@H](NC(=O)[C@H](CO)NC(=O)[C@H](Cc1ccc(O)cc1)NC(=O)[C@H](CC(=O)O)NC(=O)[C@H](CO)NC(=O)[C@@H](NC(=O)[C@H](Cc1ccccc1)NC(=O)[C@@H](NC(=O)CNC(=O)[C@H](CCC(=O)O)NC(=O)C(C)(C)NC(=O)[C@H](N)Cc1ccc(O)cc1)[C@@H](C)O)[C@@H](C)O)[C@@H](C)CC)[C@@H](C)CC)C(=O)N[C@@H](CCC(=O)O)C(=O)NCC(=O)NCC(=O)N1CCC[C@H]1C(=O)N[C@@H](CO)C(=O)N[C@@H](CO)C(=O)NCC(=O)N[C@@H](C)C(=O)N1CCC[C@H]1C(=O)N1CCC[C@H]1C(=O)N1CCC[C@H]1C(=O)N[C@@H](CO)C(N)=O [Example 356] | 0.506 | > 1010 | 10.3 | 0.386 | > 10.5 | > 10.5 | 0.35 | –
CC[C@H](C)[C@H](NC(=O)[C@H](CC(C)C)NC(=O)[C@H](Cc1ccc(O)cc1)NC(=O)[C@@H](CCC(=O)O)NC(=O)[C@@H](NC(=O)[C@H](Cc1ccccc1)NC(=O)[C@H](C)NC(=O)C(C)(C)NC(=O)[C@H](CCC(N)=O)NC(=O)[C@H](C)NC(=O)[C@H](CCCCNC(=O)COCCOCCNC(=O)COCCOCCNC(=O)CC[C@H](NC(=O)CCCCCCCCCCCCCCCCC(=O)O)C(=O)O)NC(=O)[C@H](CCCN)NC(=O)[C@H](CC(=O)O)NC(=O)[C@H](CC(C)C)NC(=O)[C@](C)(CC(C)C)NC(=O)[C@@H](NC(=O)[C@H](CO)NC(=O)[C@H](Cc1ccc(O)cc1)NC(=O)[C@H](CC(=O)O)NC(=O)[C@H](CO)NC(=O)[C@@H](NC(=O)[C@H](Cc1ccccc1)NC(=O)[C@@H](NC(=O)CNC(=O)[C@H](CCC(=O)O)NC(=O)C(C)(C)NC(=O)[C@H](N)Cc1ccc(O)cc1)[C@@H](C)O)[C@@H](C)O)[C@@H](C)CC)C(C)C)C(=O)N[C@@H](C)C(=O)NCC(=O)NCC(=O)N1CCC[C@H]1C(=O)N[C@@H](CO)C(=O)N[C@@H](CO)C(=O)NCC(=O)N[C@@H](C)C(=O)N1CCC[C@H]1C(=O)N1CCC[C@H]1C(=O)N1CCC[C@H]1C(=O)N[C@@H](CO)C(N)=O [Example 364] (H-[dY][Aib]EGTFTSDYSI[αMeL]LD[Orn]K([AEEA-AEEA-γGlu-C18 diacid])AQ[Aib]AFV[dE]YLIAGGPSSGAPPPS-NH2) | 1 | > 1150 | 17.2 | 0.351 | > 12 | > 12 | 0.672 | –
CC[C@H](C)[C@H](NC(=O)[C@H](CC(C)C)NC(=O)[C@H](Cc1ccc(O)cc1)NC(=O)[C@@H](CCC(=O)O)NC(=O)[C@@H](NC(=O)[C@H](Cc1ccccc1)NC(=O)[C@H](C)NC(=O)C(C)(C)NC(=O)[C@H](CCC(N)=O)NC(=O)[C@H](C)NC(=O)[C@H](CCCCNC(=O)COCCOCCNC(=O)COCCOCCNC(=O)CC[C@H](NC(=O)CCCCCCCCCCCCCCCCCCC(=O)O)C(=O)O)NC(=O)[C@H](CCCN)NC(=O)[C@H](CC(=O)O)NC(=O)[C@H](CC(C)C)NC(=O)[C@](C)(CC(C)C)NC(=O)[C@@H](NC(=O)[C@H](CO)NC(=O)[C@H](Cc1ccc(O)cc1)NC(=O)[C@H](CC(=O)O)NC(=O)[C@H](CO)NC(=O)[C@@H](NC(=O)[C@H](Cc1ccccc1)NC(=O)[C@@H](NC(=O)CNC(=O)[C@H](CCC(=O)O)NC(=O)C(C)(C)NC(=O)[C@H](N)Cc1ccc(O)cc1)[C@@H](C)O)[C@@H](C)O)[C@@H](C)CC)[C@@H](C)CC)C(=O)N[C@@H](CCC(=O)O)C(=O)NCC(=O)NCC(=O)N1CCC[C@H]1C(=O)N[C@@H](CO)C(=O)N[C@@H](CO)C(=O)NCC(=O)N[C@@H](C)C(=O)N1CCC[C@H]1C(=O)N1CCC[C@H]1C(=O)N1CCC[C@H]1C(=O)N[C@@H](CO)C(N)=O [Example 357] | 0.181 | > 977 | 7.02 | 0.384 | – | 0.118 | 0.316 | 18.2
